Data taken from patent publication US11292770B2, “Pyridazinone herbicides” (FMC Corporation, priority 2017, dated 2022).

What was measured:
Assay type in all cases: in vivo
kochia (Kochia scoparia) [1] = assay: Test A preemergence, kochia; details: 0 to 100 scale
Source text: (§1) Seeds of plant species selected from barnyardgrass (Echinochloa crus-galli), kochia (Kochia scoparia), ragweed (common ragweed, Ambrosia elation), ryegrass, Italian (Italian ryegrass, Lolium multiflorum), foxtail, green (green foxtail, Setaria viridis), and pigweed (Amaranthus retroflexus) were planted into a blend of loam soil and sand and treated preemergence with a directed soil spray using test chemicals formulated in a non-phytotoxic solvent mixture which included a surfactant. At the same time, plants selected from these weed species and also wheat (Triticum aestivum), corn (Zea mays), blackgrass (Alopecurus myosuroides), and galium (catchweed bedstraw, Galium aparine) were planted in pots containing the same blend of loam soil and sand and treated with postemergence applications of test chemicals formulated in the same manner Plants ranged in height from 2 to 10 cm and were in the one- to two-leaf stage for the postemergence treatment. Treated plants and untreated controls were maintained in a greenhouse for approximately 10 d, after which time all treated plants were compared to untreated controls and visually evaluated for injury. Plant response ratings, summarized in Table A, are based on a 0 to 100 scale where 0 is no effect and 100 is complete control. A dash (—) response means no test result.

kochia (Kochia scoparia) [2] = assay: Test A postemergence, kochia; details: 0 to 100 scale
Source text: as §1

[3] = test system: barnyardgrass (Echinochloa crus-galli); assay: Test B flooded paddy test, barnyardgrass; details: Flood, 250 g ai/ha; scale of 0 to 100, 0 no effect, 100 complete control
Procedure: (§2) Plant species in the flooded paddy test selected from rice (Oryza sativa), sedge, umbrella (small-flower umbrella sedge, Cyperus difformis), ducksalad (Heteranthera limosa), and barnyardgrass (Echinochloa crus-galli) were grown to the 2-leaf stage for testing. At the time of treatment, test pots were flooded to 3 cm above the soil surface, treated by application of test compounds directly to the paddy water, and then maintained at that water depth for the duration of the test. Treated plants and controls were maintained in a greenhouse for 13 to 15 d, after which time all species were compared to controls and visually evaluated. Plant response ratings, summarized in Table B, are based on a scale of 0 to 100 where 0 is no effect and 100 is complete control. A dash (—) response means no test result.

[4] = test system: ragweed (common ragweed, Ambrosia elation); assay: Test A postemergence, ragweed; details: 0 to 100 scale
Source text: as §1

[5] = test system: pigweed (Amaranthus retroflexus); assay: Test A preemergence, pigweed; details: 0 to 100 scale
Source text: as §1

[6] = test system: ragweed (common ragweed, Ambrosia elation); assay: Test A preemergence, ragweed; details: 0 to 100 scale
Source text: as §1

[7] = test system: barnyardgrass (Echinochloa crus-galli); assay: Test A preemergence, barnyardgrass; details: 0 to 100 scale
Source text: as §1

[8] = test system: sedge, umbrella (small-flower umbrella sedge, Cyperus difformis); assay: Test B flooded paddy test, sedge, umbrella; details: Flood, 250 g ai/ha; scale of 0 to 100
Procedure: as §2

[9] = test system: foxtail, green (green foxtail, Setaria viridis); assay: Test A preemergence, foxtail, green; details: 0 to 100 scale
Source text: as §1

[10] = test system: ryegrass, Italian (Italian ryegrass, Lolium multiflorum); assay: Test A preemergence, ryegrass, Italian; details: 0 to 100 scale
Source text: as §1

corn (Zea mays) = assay: Test A postemergence, corn; details: 0 to 100 scale
Source text: as §1

[11] = test system: ducksalad (Heteranthera limosa); assay: Test B flooded paddy test, ducksalad; details: Flood, 250 g ai/ha; scale of 0 to 100
Procedure: as §2

[12] = test system: blackgrass (Alopecurus myosuroides); assay: Test A postemergence, blackgrass; details: 0 to 100 scale
Source text: as §1

[13] = test system: ryegrass, Italian (Italian ryegrass, Lolium multiflorum); assay: Test A postemergence, ryegrass, Italian; details: 0 to 100 scale
Source text: as §1

[14] = test system: barnyardgrass (Echinochloa crus-galli); assay: Test A postemergence, barnyardgrass; details: 0 to 100 scale
Source text: as §1

[15] = test system: galium (catchweed bedstraw, Galium aparine); assay: Test A postemergence, galium; details: 0 to 100 scale
Source text: as §1

[16] = test system: foxtail, green (green foxtail, Setaria viridis); assay: Test A postemergence, foxtail, green; details: 0 to 100 scale
Source text: as §1

rice (Oryza sativa) = assay: Test B flooded paddy test, rice; details: Flood, 250 g ai/ha; scale of 0 to 100
Procedure: as §2

[17] = test system: wheat (Triticum aestivum); assay: Test A postemergence, wheat; details: 0 to 100 scale
Source text: as §1

[18] = test system: pigweed (Amaranthus retroflexus); assay: Test A postemergence, pigweed; details: 0 to 100 scale
Source text: as §1

[19] = 125 g ai/ha, 0 no effect, 100 complete control

Row | SMILES | Plant response rating, Kochia (kochia (Kochia scoparia) [1]; 31 g ai/ha) | Plant response rating, Kochia (kochia (Kochia scoparia) [1]; 125 g ai/ha) | Plant response rating, Kochia (kochia (Kochia scoparia) [2]; 31 g ai/ha) | Plant response rating, Kochia (kochia (Kochia scoparia) [2]; 125 g ai/ha) | Plant response rating, Ragweed ([4]; 31 g ai/ha) | Plant response rating, Ragweed ([4]; 125 g ai/ha) | Plant response rating, Pigweed ([5]; 31 g ai/ha) | Plant response rating, Pigweed ([5]; 125 g ai/ha) | Plant response rating, Ragweed ([6]; 31 g ai/ha) | Plant response rating, Ragweed ([6]; 125 g ai/ha) | Plant response rating, Barnyardgrass ([7]; 31 g ai/ha) | Plant response rating, Barnyardgrass ([7]; 125 g ai/ha) | Plant response rating, Foxtail, Green ([9]; 31 g ai/ha) | Plant response rating, Foxtail, Green ([9]; 125 g ai/ha) | Plant response rating, Ryegrass, Italian ([10]; 31 g ai/ha) | Plant response rating, Ryegrass, Italian ([10]; 125 g ai/ha) | Plant response rating, Corn (corn (Zea mays); 31 g ai/ha) | Plant response rating, Corn (corn (Zea mays); 125 g ai/ha) | Plant response rating, Blackgrass ([12]; 31 g ai/ha) | Plant response rating, Blackgrass ([12]; 125 g ai/ha) | further results
1 | Cc1c2ccccc2c(-c2c(O)c(Cl)nn(C)c2=O)c2ccccc12 [Compound 5] | 0 | 0 | 0 | 0 | 10 | 20 | 0 | 60 | 0 | 0 | 0 | 0 | 0 | 0 | 0 | 0 | 10 | 20 | 0 | 0 | Plant response rating, Barnyardgrass [3]: 0; Plant response rating, Sedge, Umbrella [8]: 95; Plant response rating, Ducksalad [11]: 90; Plant response rating, Ryegrass, Italian ([13]; 31 g ai/ha): 0; Plant response rating, Ryegrass, Italian ([13]; 125 g ai/ha): 50; Plant response rating, Barnyardgrass ([14]; 31 g ai/ha): 0; Plant response rating, Barnyardgrass [14, 19]: 30; Plant response rating, Galium ([15]; 31 g ai/ha): 20; Plant response rating, Galium ([15]; 125 g ai/ha): 70; Plant response rating, Foxtail, Green ([16]; 31 g ai/ha): 0; Plant response rating, Foxtail, Green ([16]; 125 g ai/ha): 30; Plant response rating, Rice (rice (Oryza sativa)): 0; Plant response rating, Wheat ([17]; 31 g ai/ha): 0; Plant response rating, Wheat ([17]; 125 g ai/ha): 0; Plant response rating, Pigweed ([18]; 31 g ai/ha): 50; Plant response rating, Pigweed ([18]; 125 g ai/ha): 90
2 | Cn1nc(Cl)c(O)c(-c2c3ccccc3c(Br)c3ccccc23)c1=O [Compound 3, 4-(10-bromo-9-anthracenyl)-6-chloro-5-hydroxy-2-methyl-3(2H)-pyridazinone] | 0 | 50 | 10 | 50 | 80 | 90 | 100 | 100 | 20 | 100 | 0 | 50 | 10 | 80 | 20 | 80 | 0 | 10 | 10 | 70 | Plant response rating, Ryegrass, Italian ([13]; 31 g ai/ha): 40; Plant response rating, Ryegrass, Italian ([13]; 125 g ai/ha): 50; Plant response rating, Barnyardgrass ([14]; 31 g ai/ha): 20; Plant response rating, Barnyardgrass [14, 19]: 60; Plant response rating, Galium ([15]; 31 g ai/ha): 90; Plant response rating, Galium ([15]; 125 g ai/ha): 90; Plant response rating, Foxtail, Green ([16]; 31 g ai/ha): 40; Plant response rating, Foxtail, Green ([16]; 125 g ai/ha): 90; Plant response rating, Wheat ([17]; 31 g ai/ha): 20; Plant response rating, Wheat ([17]; 125 g ai/ha): 60; Plant response rating, Pigweed ([18]; 31 g ai/ha): 100; Plant response rating, Pigweed ([18]; 125 g ai/ha): 100
3 | Cn1nc(Cl)c(O)c(-c2c3ccccc3c(Cl)c3ccccc23)c1=O [Compound 2, 6-chloro-4-(10-chloro-9-anthracenyl)-5-hydroxy-2-methyl-3(2H)-pyridazinone] | 0 | 10 | 10 | 70 | 90 | 90 | 100 | 100 | 80 | 100 | 0 | 0 | 0 | 90 | 20 | 70 | 0 | 0 | 0 | 60 | Plant response rating, Barnyardgrass [3]: 0; Plant response rating, Sedge, Umbrella [8]: 75; Plant response rating, Ducksalad [11]: 80; Plant response rating, Ryegrass, Italian ([13]; 31 g ai/ha): 50; Plant response rating, Ryegrass, Italian ([13]; 125 g ai/ha): 80; Plant response rating, Barnyardgrass ([14]; 31 g ai/ha): 0; Plant response rating, Barnyardgrass [14, 19]: 20; Plant response rating, Galium ([15]; 31 g ai/ha): 20; Plant response rating, Galium ([15]; 125 g ai/ha): 100; Plant response rating, Foxtail, Green ([16]; 31 g ai/ha): 10; Plant response rating, Foxtail, Green ([16]; 125 g ai/ha): 60; Plant response rating, Rice (rice (Oryza sativa)): 0; Plant response rating, Wheat ([17]; 31 g ai/ha): 0; Plant response rating, Wheat ([17]; 125 g ai/ha): 30; Plant response rating, Pigweed ([18]; 31 g ai/ha): 100; Plant response rating, Pigweed ([18]; 125 g ai/ha): 100
4 | Cn1nc(Cl)c(O)c(-c2c3ccccc3cc3ccccc23)c1=O [Compound 1, 4-(9-anthracenyl)-6-chloro-5-hydroxy-2-methyl-3(2H)-pyridazinone] | 0 | 20 | 10 | 20 | 80 | 90 | 100 | 100 | 70 | 100 | 0 | 0 | 0 | 0 | 20 | 30 | 0 | 0 | 0 | 10 | Plant response rating, Barnyardgrass [3]: 20; Plant response rating, Sedge, Umbrella [8]: 90; Plant response rating, Ducksalad [11]: 85; Plant response rating, Ryegrass, Italian ([13]; 31 g ai/ha): 20; Plant response rating, Ryegrass, Italian ([13]; 125 g ai/ha): 40; Plant response rating, Barnyardgrass ([14]; 31 g ai/ha): 0; Plant response rating, Barnyardgrass [14, 19]: 20; Plant response rating, Galium ([15]; 31 g ai/ha): 70; Plant response rating, Galium ([15]; 125 g ai/ha): 90; Plant response rating, Foxtail, Green ([16]; 31 g ai/ha): 10; Plant response rating, Foxtail, Green ([16]; 125 g ai/ha): 50; Plant response rating, Rice (rice (Oryza sativa)): 0; Plant response rating, Wheat ([17]; 31 g ai/ha): 0; Plant response rating, Wheat ([17]; 125 g ai/ha): 10; Plant response rating, Pigweed ([18]; 31 g ai/ha): 90; Plant response rating, Pigweed ([18]; 125 g ai/ha): 100
